Source: ChEMBL document CHEMBL1141251, “Anthelmintic macrolactams from Nonomuraea turkmeniaca MA7364” (2007)
≈ marks a conversion by molar mass, not a printed value. Calls of active or inactive are those of the source. The calls are words filed in the database; no cut-off is given here.

What was measured:
[1] = test system: Heligmosomoides polygyrus; test: Anthelmintic activity in Heligmosomoides polygyrus infected Swiss Webster mouse assessed as reduction in worm count at 50 mg/kg, sc on day 3 relative to control; format: functional
Haemonchus contortus = test: Anthelmintic activity against Haemonchus contortus assessed as reduction in L3 larval motility; format: functional

With CCC1CCCCCC[C@H](O[C@@H]2O[C@@H](C)[C@@H](O)[C@@H](NC)[C@H]2O)[C@@H](C)C(=O)NCCC1 (some centres undefined) the Activity [1] was “inactive” and the EC90 (Haemonchus contortus) was 15 µg/mL (≈ 35 µM).
With CCC1CCCNC(=O)[C@H](C)[C@@H](O[C@@H]2O[C@@H](C)[C@@H](O)[C@@H](NC)[C@H]2O)CCC(C)CCC1 (some centres undefined) the Activity ([1]; route subcutaneous) was 42% and the EC90 (Haemonchus contortus) was 29 µg/mL (≈ 65.5 µM).
